The values that follow come from ChEMBL document CHEMBL2380311 (Bioorg Med Chem Lett, 2013).

For assay [1], the target named is Cholinesterase (Equus caballus, UniProt P81908).
Description: Inhibition of equine serum BChE using butyrylthiocholine iodide as substrate after 5 mins by Ellman's method
Assay [2] concerns the target Acetylcholinesterase (Electrophorus electricus, UniProt O42275).
Description: Inhibition of electric eel AChE using acetylthiocholine iodide as substrate after 5 mins by Ellman's method
In assay [3] the target is Cholinesterase (Equus caballus) (UniProt P81908). Kind of assay: Mixed-type inhibition of equine serum BChE using butyrylthiocholine iodide as substrate by Lineweaver-Burk reciprocal plot analysis.

The source made the active and inactive calls. The calls are words filed in the database; no cut-off is given here.

Sequence of Acetylcholinesterase (O42275 whole entry): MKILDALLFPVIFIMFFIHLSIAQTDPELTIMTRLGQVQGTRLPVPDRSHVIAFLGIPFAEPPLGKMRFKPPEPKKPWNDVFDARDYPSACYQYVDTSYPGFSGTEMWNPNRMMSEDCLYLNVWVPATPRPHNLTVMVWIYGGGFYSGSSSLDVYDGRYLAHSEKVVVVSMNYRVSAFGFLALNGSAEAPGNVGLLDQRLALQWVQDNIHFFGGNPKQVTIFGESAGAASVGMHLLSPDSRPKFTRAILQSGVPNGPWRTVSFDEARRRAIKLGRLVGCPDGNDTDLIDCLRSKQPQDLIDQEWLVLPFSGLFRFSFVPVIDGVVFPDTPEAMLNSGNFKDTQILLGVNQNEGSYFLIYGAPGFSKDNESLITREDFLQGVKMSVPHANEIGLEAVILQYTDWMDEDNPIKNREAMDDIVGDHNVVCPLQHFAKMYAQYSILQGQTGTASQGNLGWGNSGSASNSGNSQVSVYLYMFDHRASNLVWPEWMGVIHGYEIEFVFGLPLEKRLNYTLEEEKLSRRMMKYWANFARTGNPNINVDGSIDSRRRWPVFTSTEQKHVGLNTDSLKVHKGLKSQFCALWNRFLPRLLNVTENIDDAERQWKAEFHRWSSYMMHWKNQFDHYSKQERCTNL
Sequence of Cholinesterase (P81908 whole entry): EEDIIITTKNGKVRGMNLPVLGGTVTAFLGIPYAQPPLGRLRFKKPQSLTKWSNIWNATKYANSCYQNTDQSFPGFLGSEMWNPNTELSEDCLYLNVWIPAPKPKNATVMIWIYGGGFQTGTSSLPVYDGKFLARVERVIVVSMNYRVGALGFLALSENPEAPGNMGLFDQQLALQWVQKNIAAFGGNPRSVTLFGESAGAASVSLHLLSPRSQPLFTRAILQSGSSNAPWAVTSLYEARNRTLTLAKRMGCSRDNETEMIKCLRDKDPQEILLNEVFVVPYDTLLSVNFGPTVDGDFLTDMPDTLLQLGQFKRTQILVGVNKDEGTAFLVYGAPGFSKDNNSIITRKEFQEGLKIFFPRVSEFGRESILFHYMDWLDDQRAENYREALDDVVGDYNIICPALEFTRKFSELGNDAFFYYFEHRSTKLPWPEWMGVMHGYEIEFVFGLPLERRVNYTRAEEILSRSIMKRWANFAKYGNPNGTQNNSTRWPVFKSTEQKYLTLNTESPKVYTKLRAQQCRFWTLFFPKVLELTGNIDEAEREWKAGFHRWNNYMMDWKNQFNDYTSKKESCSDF
Sequence of Cholinesterase (Equus caballus) (P81908 whole entry): as above

Turning to `CC(C(=O)NCCCNc1c2c(nc3ccccc13)CCCC2)c1ccc(-c2ccc(OCCCO[N+](=O)[O-])cc2)c(F)c1` (stereo unspecified), the IC50 in assay [1] came out at 8.6 nM; in assay [2], 189 nM.

Take `CC(C(=O)NCCCCNc1c2c(nc3ccccc13)CCCC2)c1ccc(-c2ccc(OCCCO[N+](=O)[O-])cc2)c(F)c1` (stereo unspecified): the 50% inhibitory concentration (IC50) is 10.6 nM in assay [1] and 261 nM in assay [2].

As for `CC(C(=O)NCCCCNc1c2c(nc3ccccc13)CCCC2)c1ccc(-c2ccc(OCCCCO[N+](=O)[O-])cc2)c(F)c1` (stereo unspecified), the 50% inhibitory concentration (IC50) came to 7.7 nM in assay [1] and 641 nM in assay [2].

As to `CC(C(=O)NCCCCNc1c2c(nc3ccccc13)CCCC2)c1ccc(-c2ccc(OCCCCCCO[N+](=O)[O-])cc2)c(F)c1` (stereo unspecified), the IC50 in assay [1] was determined as 3.9 nM; in assay [2], 1460 nM.

As for `CC(C(=O)NCCCNc1c2c(nc3ccccc13)CCCC2)c1ccc(-c2ccc(OCCCCCCO[N+](=O)[O-])cc2)c(F)c1` (stereo unspecified), the half-inhibitory concentration (IC50) in assay [1] came to 8.1 nM; in assay [2] it was 1010 nM.

In the case of `CC(C(=O)NCCCCNc1c2c(nc3ccccc13)CCCC2)c1ccc(-c2ccc(OCCO[N+](=O)[O-])cc2)c(F)c1` (stereo unspecified), the half-inhibitory concentration (IC50) is 13.9 nM in assay [1] and 227 nM in assay [2].

In the case of `CC(C(=O)NCCNc1c2c(nc3ccccc13)CCCC2)c1ccc(-c2ccc(OCCCCO[N+](=O)[O-])cc2)c(F)c1` (stereo unspecified), the results for the concentration for half-maximal inhibition (IC50) in assay [1] and in assay [2] were 10.1 nM and 1350 nM, respectively.

With `CC(C(=O)NCCCCNc1c2c(nc3ccccc13)CCCC2)c1ccc(-c2ccccc2)c(F)c1` (stereo unspecified), the IC50 turned out to be 11 nM in assay [1] and 193 nM in assay [2].

Consider `CC(C(=O)NCCNc1c2c(nc3ccccc13)CCCC2)c1ccc(-c2ccc(OCCCO[N+](=O)[O-])cc2)c(F)c1` (stereo unspecified), for which the 50% inhibitory concentration (IC50) was 10 nM in assay [1] and 341 nM in assay [2].

For `CC(C(=O)NCCCNc1c2c(nc3ccccc13)CCCC2)c1ccc(-c2ccc(OCCO[N+](=O)[O-])cc2)c(F)c1` (stereo unspecified), the IC50 in assay [1] stood at 8.1 nM; in assay [2], 112 nM.

In the case of `CC(C(=O)NCCNc1c2c(nc3ccccc13)CCCC2)c1ccc(-c2ccccc2)c(F)c1` (stereo unspecified), the IC50 came to 58.7 nM in assay [1] and 715 nM in assay [2].

Take `CC(C(=O)NCCCNc1c2c(nc3ccccc13)CCCC2)c1ccc(-c2ccccc2)c(F)c1` (stereo unspecified): the IC50 in assay [1] was 13.9 nM; in assay [2] it was 345 nM.

Turning to `CC(C(=O)NCCNc1c2c(nc3ccccc13)CCCC2)c1ccc(-c2ccc(OCCO[N+](=O)[O-])cc2)c(F)c1` (stereo unspecified), the concentration for half-maximal inhibition (IC50) in assay [1] is 9.9 nM; in assay [2], 183 nM.

As for `CC(C(=O)NCCCNc1c2c(nc3ccccc13)CCCC2)c1ccc(-c2ccc(OCCCCO[N+](=O)[O-])cc2)c(F)c1` (stereo unspecified), the 50% inhibitory concentration (IC50) in assay [1] came out at 7.9 nM; in assay [2], 357 nM.

Regarding `CC(C(=O)NCCNc1c2c(nc3ccccc13)CCCC2)c1ccc(-c2ccc(OCCCCCCO[N+](=O)[O-])cc2)c(F)c1` (stereo unspecified), in assay [3], the inhibition entry was “Active”. The IC50 was 7.6 nM in assay [1] and 4310 nM in assay [2].
